According to patent publication US20110118379A1, “INTERVERTEBRAL DISC AND INTRAOCULAR LENS” (priority 2008, published 2011):

Assays:
[1] = system: bovine nucleus pulposus cells; assay: MTS cytotoxicity assay, bovine nucleus pulposus cells; format: cell-based; settings: bovine disc cells, 24 hours incubation
Experimental: (§1) Cytotoxicity testing was carried out on precursor monomers and proteoglycan analogues via the MTS assay using a commercial Kit (MTS assay Cell titre 96® AQueous One Solution Cell Proliferation Assay). Briefly, 5×10^3 cells per well were allowed to adhere to a 96 well plate for 24 hours. The substance under test was added and incubated with the cells for 24 hours before assessment of cell activity with MTS solution. Two cell types were used: (i) L929 mouse fibroblasts (European Collection of Cell Culture: ECACC No 85011425) which are typically used in cytotoxicity tests and (ii) bovine nucleus pulposus cells, prepared by enzymatic digestion of nucleus pulposus from bovine coccygeal discs.
(§2) The individual possible components of proteoglycan analogues were tested, including: NaAMPS, KSPA, acryloyl morpholine (ACMO), glycerol, ascorbic acid, Oxone (potassium oxypersulphate), PEG diacrylate and multifunctional macromer cross-linkers. The proteoglycan analogues are exemplified by those in Tables 1 and 2.

L929 mouse fibroblasts = assay: MTS cytotoxicity assay, L929 cells; format: cell-based; settings: 24 hours incubation
Experimental: as §1, §2

Compound | toxicity to cells (MTS assay) [1] | toxicity to cells (MTS assay) (L929 mouse fibroblasts)
O=C1O[C@H]([C@@H](O)CO)C(O)=C1O [ascorbic acid] | not to be toxic | not to be toxic
potassium oxypersulphate [Oxone] | not to be toxic | not to be toxic
